What was measured:
Xenopus embryos [1] = assay: Gastrulation scoring (incomplete blastopore closure) in treated or kcnh6-depleted embryos; type: in vivo, Xenopus tropicalis; settings: for inability to complete gastrulation: kcnh6 depletion, injected at one-cell stage
Protocol: All injections of Xenopus embryos were performed at the one-cell stage using a fine glass needle and Picospritzer system. A kcnh6 translation blocking (kcnh6 MO, 5′-[…]-3′, SEQ ID NO:1) and a scrambled morpholino oligonucleotide were obtained from Gene Tools LLC and injected at 10 ng to deplete kcnh6 or as a control, respectively. CRISPR sgRNAs for kcnh6 targeted either exon 3 or exon 4 based on the v7.1 gene model of the X. tropicalis genome (CRex3: 5′-[…]-3′, SEQ ID NO:2 and CRex4: 5′-[…]-3′, SEQ ID NO:3). CRISPR sgRNAs for cacna1c (5′-[…]-3′, SEQ ID NO:4) and cacna1g (5′-[…]-3′, SEQ ID NO:5) were designed from the v7.1 model of the Xenopus tropicalis genome. For F0 CRISPR knockdown, embryos were injected with 1.5 ng Cas9 Protein (PNA-Bio) and 400 pg of targeting sgRNA and raised to desired stages. […] Full length human KCNH6 (NM 030779.3; cloned in pCS107), GCaMP6 (subcloned in pCSDest) and mCherry cDNAs (Addgene #34935; in pCS2+), were used to generate capped mRNAs in vitro by first linearizing with appropriate restriction enzymes and then transcribing with the mMessage machine kit (Ambion). mRNAs were injected at 3 pg (human KCNH6), 150 pg (GCaMP6) and 150 pg (mCherry) per embryo. Embryos were raised at 21° C. to allow time for sufficient expression levels at blastula/gastrula stages.
(§1) Normal embryonic medium is 1/9× modified Ringer's (MR) containing 11 mM NaCl, 0.2 mM KCl, 0.2 mM CaCl2), 0.1 mM Mg2Cl and 0.55 mM HEPES. To allow Ergtoxin to penetrate the embryos, the present study manually removed the vitelline envelope of stage 8 embryos and incubated embryos in 1/9×MR containing 50 nM Ergtoxin (Alomone STE-450) until stage 12. Embryos were then transferred back into 1/9×MR lacking Ergtoxin to develop until stage 45 in order to score organ situs. Barium chloride was applied into the medium at 20 mM and embryos were thoroughly rinsed in 1/9×MR after each incubation period for further development in Ba2+-free medium. For extracellular K^+ manipulations, the KCl concentration in 1/9×MR was modified from 0.2 mM (normal) to 20 mM (high) or 0 mM (low). The ionophore valinomycin (ACROS) and L-type VGCC blocker Nifedipine (ACROS) were diluted in DMSO as stock solutions and applied to embryos in 1/9×MR at 2 nM and 10 μM respectively. Treatments performed during gastrulation were applied from stage 8 through stage 12, and embryos were then rinsed thoroughly and returned into 1/9×MR. For rapamycin, the present study created a standard stock solution of 50 mg/ml in DMSO. The stock solution was diluted 1:2500 in the appropriate embryonic media (final 20 μg/ml). Embryos were treated at stage 7 and then fixed at stage 11 for in situ hybridization.
(§2) In experiments where embryos were evaluated for phenotypes and scored (gastrulation, left-right patterning, in situ hybridizations) the present study carried out three to five biological replicates and Fisher's exact test to evaluate statistical significance. The animal cap experiment was performed twice with a total score of four to eight animal caps per experiment. For the calcium transient analyses, data was collected from three to five embryos in each experiment in three independent experiments, and statistical analyses on GCaMP/mCherry fluorescence intensity as well as Ca^2+ transient area were performed using student's t-test. For whole cell electrophysiological recordings, three to five embryos (two cells each) were examined for their membrane potential and statistical significance was tested by student's t-test. Graphs were designed using GraphPad Prism software. Models were created with BioRender.com.

Xenopus embryos [2] = assay: Organ situs (left-right patterning) scoring in stage 45 tadpoles; type: in vivo, Xenopus tropicalis; settings: for abnormal organ situs: kcnh6 depletion, injected at one-cell stage
Protocol: Stage 45 Xenopus embryos were paralyzed with benzocaine or tricaine and scored with a light stereomicroscope. Cardiac looping was determined by position of the outflow tract; D-loop: rightward, L-loop: leftward; A-loop: midline. Normal intestinal looping was scored as counter-clockwise rotation of the gut, while abnormal intestinal looping was scored as completely inverse gut rotation (clockwise) or complete lack of looping (un-looped). While a completely inverted gut rotation is clearly an abnormality of LR patterning, an unlooped gut is less clear so the present study only considered an unlooped gut as abnormal situs when combined with abnormal placement (left-sided or midline) of the gall bladder. To quantify total abnormal organ situs, each tadpole was counted only once, regardless of whether multiple organs were affected.
as §1, §2

Xenopus embryos [3] = assay: Whole mount in situ hybridization for germ layer and pluripotency markers; type: in vivo, Xenopus tropicalis; settings: for expression of ectodermin and myf5 on co-depletion in kcnh6 depleted embryos: CRISPR co-depletion
Description: In order to generate a full-length antisense probe for X. tropicalis kcnh6, kcnh6 cDNA was cloned from stage 45 tadpole whole mRNA using primers […] ID NO:10) and […] ID NO:11) (XM_012952904.1). It was noted that kcnh6 had been misannotated as kcnh2 in the v7.1 model of the X. tropicalis genome (The present study used NCBI Annotation XP_012808358.2 to identify KCNH6). […] GRPs were dissected post fixation and prior to dehydration to detect dandy. To detect putative gene expression in the prospective endoderm (mixer, vegT, kcnh6) gastrula stage embryos were bisected to facilitate better probe access. Briefly, whole mount in situ hybridization of digoxigenin-labeled antisense probes was performed overnight, the labelled embryos were then washed, incubated with anti-digoxigenin-AP Fab fragments (Roche 11093274910), and signal was detected using BM-purple (Roche 11442074001). Normal embryonic medium is 1/9× modified Ringer's (MR) containing 11 mM NaCl, 0.2 mM KCl, 0.2 mM CaCl2), 0.1 mM Mg2Cl and 0.55 mM HEPES. […] For extracellular K^+ manipulations, the KCl concentration in 1/9×MR was modified from 0.2 mM (normal) to 20 mM (high) or 0 mM (low). […] For rapamycin, the present study created a standard stock solution of 50 mg/ml in DMSO. The stock solution was diluted 1:2500 in the appropriate embryonic media (final 20 μg/ml). […] In experiments where embryos were evaluated for phenotypes and scored (gastrulation, left-right patterning, in situ hybridizations) the present study carried out three to five biological replicates and Fisher's exact test to evaluate statistical significance. The animal cap experiment was performed twice with a total score of four to eight animal caps per experiment. […] For whole cell electrophysiological recordings, three to five embryos (two cells each) were examined for their membrane potential and statistical significance was tested by student's t-test. Graphs were designed using GraphPad Prism software. Models were created with BioRender.com.

[4] = test system: animal pole cells (prospective ectoderm); assay: Intracellular Vm recordings in animal pole cells; type: in vivo, Xenopus tropicalis; settings: high K^+ and ½ sodium replacement with choline; stage 9 animal pole
Description: For recordings, devitellinized, stage 10 kcnh6 or control MO injected embryos were mounted into non-toxic clay with their animal pole exposed and covered with 1/9×MR. To investigate the resting potential, animal pole cells were impaled with a high-impedance (˜70 Me), sharp microelectrode filled with 3 M KCl for intracellular recordings. The recordings were made using an Axon 200B amplifier and digitized using a Digidata 1320 digitizer. Jclamp software for Windows was used in current clamp mode. All electrodes were zeroed just before entry into the cells.
For the series of intracellular recordings in high K^+ and choline treated embryos, stage 8-9 embryos were impaled similarly with an electrode of […]. These recordings were made using a HEKA EPC10 amplifier. The present study used HEKA PatchMaster v2x67 software for Windows. […]
In experiments where embryos were evaluated for phenotypes and scored (gastrulation, left-right patterning, in situ hybridizations) the present study carried out three to five biological replicates and Fisher's exact test to evaluate statistical significance. […] For the calcium transient analyses, data was collected from three to five embryos in each experiment in three independent experiments, and statistical analyses on GCaMP/mCherry fluorescence intensity as well as Ca^2+ transient area were performed using student's t-test. […]

hESCs = assay: hESC pluripotency marker immunofluorescence; type: cell-based, human; settings: hESCs, rapamycin 100 nM, 5 days
Protocol: hESCs were grown in mTeSR1 ([…] Technologies) in tissue culture dishes coated with Matrigel (Corning; 1:200 in DMEM/F12) and kept at 37° C., 5% CO2. The cell lines used were ESI017 (ESIBIO) and H9.
Cells were dissociated with accutase and seeded onto 8 well imaging slides (ibidi 80826) at a density of 4-6×10^4/cm^2. Cells were seeded and maintained in Rock-inhibitor Y27672 (MCE; 10 μM) to increase survival and the uniformity of response. Treatments with 1 mM BaCl2 or 10 or 25 nM Ergtoxin or 100 nM rapamycin were initiated 4 hours after seeding. Differentiation was initiated 24 hours after seeding where indicated. To initiate differentiation, the media was replenished with/without BaCl2 or Ergtoxin and treated with the indicated growth factors or small molecules. Cells were incubated for the indicated times without media change before fixation.
Cells were fixed for 30 min in 4% paraformaldehyde, rinsed twice with DPBS (without Ca^2+ and Mg^2+, denoted DPBS^−/−), and blocked for 30 min at room temperature. The blocking solution contained 3% donkey serum and 0.1% Triton X-100 in 1×DPBS^−/−. After blocking, the cells were incubated with primary antibodies at room temperature for 2 hours. Antibodies and concentrations are listed below. Cells were washed three times with DPBST (1×DPBS^−/− with Tween 20) and incubated with secondary antibodies (AlexaFluor 488 A21206, AlexaFluor 555 A31570 and A21432, and AlexaFluor 647 A31571, Thermo Fisher; 1:500) and DAPI for 30 min at room temperature. After secondary antibody incubation, samples were washed in DPBST and then DPBS at room temperature.
Images were acquired using a 20×, NA 0.75 objective on an Olympus IX83 inverted epifluorescence microscope or an Olympus/Andor spinning disk confocal microscope. Cell segmentation was performed using ilastik software. This segmentation was cleaned (to remove debris and to separate merged cells) and mean nuclear protein intensities as well as standard errors were quantified using a custom MATLAB code. Nuclear intensities were normalized by DAPI to correct for intensity variation due to optics. […]

[5] = nifedipine-treated (10 μM) kcnh6 CR embryos
[6] = nifedipine-treated (10 μM) kcnh6 MO embryos

[Ba+2].[Cl-].[Cl-] [Barium, Barium chloride]
embryos that failed to complete gastrulation (Xenopus embryos [1]; depolarizing treatment at blastula/gastrula stages (stage 8-12), barium chloride 20 mM or KCl 20 mM, ±SEM): 37±3% | embryos with misplacement of organs relative to the left-right axis (defective organ situs) (Xenopus embryos [2]; depolarizing treatment at blastula/gastrula stages, scored at stage 45, ±SEM): 23±2% | markers of dorsal (gsc, nodal3) and ventral mesoderm (vent2) (Xenopus embryos [3]; depolarized embryos, stage 10): unaffected | paraxial mesoderm fates (myoD, myf5, tbxt) (Xenopus embryos [3]; depolarized embryos, stage 10): lost

C[N+](C)(C)CCO [choline]
Vm [4]: −41±4 mV

COC(=O)C1=C(C)NC(C)=C(C(=O)OC)C1c1ccccc1[N+](=O)[O-] [nifedipine]
embryos with absent ectodermin (Xenopus embryos [3]; [5]): 16±7% | embryos with myf5 lost (Xenopus embryos [3]; [5]): 16±1% | embryos with absent ectodermin (Xenopus embryos [3]; [6]): 17±3% | embryos with myf5 lost (Xenopus embryos [3]; [6]): 18±5%

CO[C@H]1C[C@@H]2CC[C@@H](C)[C@@](O)(O2)C(=O)C(=O)N2CCCC[C@H]2C(=O)O[C@H]([C@H](C)C[C@@H]2CC[C@@H](O)[C@H](OC)C2)CC(=O)[C@H](C)/C=C(\C)[C@@H](O)[C@@H](OC)C(=O)[C@H](C)C[C@H](C)/C=C/C=C/C=C/1C [rapamycin]
final cell numbers per well (hESCs): reduce the final cell numbers per well

CC(C)[C@@H]1NC(=O)[C@H](C)OC(=O)[C@@H](C(C)C)NC(=O)[C@@H](C(C)C)OC(=O)[C@H](C(C)C)NC(=O)[C@H](C)OC(=O)[C@@H](C(C)C)NC(=O)[C@@H](C(C)C)OC(=O)[C@H](C(C)C)NC(=O)[C@H](C)OC(=O)[C@@H](C(C)C)NC(=O)[C@@H](C(C)C)OC1=O [valinomycin]
gastrulation defect in kcnh6 CR embryos (Xenopus embryos [1]; kcnh6 CR embryos treated with valinomycin 2 nM, stage 8-12): 16±7%

CR-ex3: CRISPR sgRNA targeting kcnh6 exon 3, SEQ ID NO:2, injected with Cas9 protein (guide GGAATAAGGGGTGAAGACAGCGG; sgRNA injected with Cas9 protein, chemistry not given here; the letters are possibly those of the target site)
inability to complete gastrulation (Xenopus embryos [1]): 27±4% | abnormal organ situs (Xenopus embryos [2]): 43±12%

CR-ex4: CRISPR sgRNA targeting kcnh6 exon 4, SEQ ID NO:3, injected with Cas9 protein (guide AGGGCGCTCTACATTTCCAATGG; sgRNA injected with Cas9 protein, chemistry not given here; the letters are possibly those of the target site)
inability to complete gastrulation (Xenopus embryos [1]): 29±5% | abnormal organ situs (Xenopus embryos [2]): 19±1%

cacna1c: CRISPR sgRNA for cacna1c (Cav1.2; L-type), SEQ ID NO:4 (guide GCAGACGGGGGCAGCGCCATTGG; sgRNA chemistry not given here; the letters are possibly those of the target site)
expression of ectodermin and myf5 on co-depletion in kcnh6 depleted embryos (Xenopus embryos [3]): rescued expression

cacna1g: CRISPR sgRNA for cacna1g (Cav3.1; T-type), SEQ ID NO:5 (guide GGTTAATGGCTCTCAGCGGGCGG; sgRNA chemistry not given here; the letters are possibly those of the target site)
expression of ectodermin and myf5 on co-depletion in kcnh6 depleted embryos (Xenopus embryos [3]): no rescue

Reference: US20240018470A1, “METHOD OF MANIPULATING PLURIPOTENCY IN CELLS” (YALE UNIVERSITY, priority 2022, published 2024)
